Experimental data as given in US9464064B2, “HCV helicase inhibitors and methods of use thereof” (University of Kansas, priority 2011, dated 2016).
Where “and” joins values, the source holds several entries; their conditions need not be identical. Equal entries are not always repeated. Where two headings read alike, the source gives them in different places.

What was measured:
MBHA DNA substrate = experiment: Modified FID assay, SYBR Green I; assay type: binding; settings: for DNA binding (%): SYBR Green I-FID, average (±SD) percent bound at 100 μM
Outline: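 Fluorescent intercalator displacement with SYBR Green I (0.68 μM) in place of ethidium bromide and MBHA DNA at 0.32 μM. Normalized data fit to concentration-response equation; EC50 given as mean ± SD of three independent triplicate titrations.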

[1] = tested on: HCV RLuc subgenomic replicon (genotype 1b) in Huh-7.5 cells; experiment: HCV subgenomic replicon assay (Renilla luciferase); assay type: cell-based, hepatitis C virus; settings: Hepatitis C virus
Outline: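 Huh-7.5 cells stably harbouring the genotype 1b HCV RLuc subgenomic replicon were treated with compound at 10 μM final (0.5% DMSO) for 72 h at 37 °C. Replication was assessed as Renilla luciferase activity in lysates relative to DMSO-treated cells.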

Huh-7.5 cells = experiment: Cell viability assay ([…]-GLO); assay type: cell-based, human; settings: for Cell viability (% viable): 10 μM compound, triplicate, average ± SD
Outline: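 Huh-7.5 cells exposed to compound for 72 hours, washed, then lysed in a 1:1 mix of growth medium and […]-GLO reagent. After 30 minutes at 23° C., luminescence was read for 1 second as a measure of viability.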

[2] = target: T1, E. coli SSB-Cy5-dT15 complex (Escherichia coli, UniProt P0AGE0); experiment: Escherichia coli SSB Cy5-dT15 binding assay (fluorescence polarization); settings: for inhibition at 100 µM: read-out: SSB % Displaced @ 100 μM
T1 construct: purchased Promega
Outline: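 Fluorescence polarization with 5 nM Cy5-dT15 and 20 nM E. coli SSB in 25 mM MOPS pH 7.5, 1.25 mM MgCl2, BSA, Tween 20, DTT. Screening at 1% DMSO; IC50 runs at 5% DMSO. Excitation 635 nm, parallel and perpendicular emission at 667 nm.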

[3] = SYBR Green, read-out: FID (SG) EC50 (converted)
[4] = Huh7.5, 10 μM compound, triplicate, average ± SD, read-out: HCV replication (% Inh.)
[5] = Huh7.5, 10 μM, read-out: Replicon (% Inhibition @ 10 μM)
[6] = disruption of Cy5-dT15-SSB complex, read-out: Cy5-dT15-SSB Binding IC50
[7] = FID, mean ± SD, read-out: DNA Binding (SYBR Green I) EC50

T1 sequence (P0AGE0 2-178, one chain of several): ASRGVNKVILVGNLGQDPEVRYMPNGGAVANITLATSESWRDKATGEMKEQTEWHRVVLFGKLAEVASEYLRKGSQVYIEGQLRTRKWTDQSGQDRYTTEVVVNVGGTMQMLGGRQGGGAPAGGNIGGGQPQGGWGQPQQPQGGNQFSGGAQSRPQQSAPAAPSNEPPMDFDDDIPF

SMILES | DNA binding (%) (MBHA DNA substrate) | FID (SG) % Displaced @ 100 μM (MBHA DNA substrate; SYBR Green) [%] | EC50 (MBHA DNA substrate; [3]) [µM] | inhibition at 10 µM [1, 4] [%] | inhibition at 10 µM [1, 5] [%] | Cell Viability (% @ 10 μM) (Huh-7.5 cells) | Cell viability (% viable) (Huh-7.5 cells) [%] | IC50 [2, 6] [µM] | inhibition at 100 µM [2] [%] | EC50 ([2]; read-out: SSB EC50) [µM] | EC50 (MBHA DNA substrate; [7]) [µM] | inhibition at 10 µM ([1]; Huh7.5, read-out: HCV replication (% Inh.)) [%] | inhibition at 10 µM ([1]; Huh7.5, read-out: Replicon (% Inhibition @ 10 μM)) [%] | EC50 [2] [µM] | IC50 [2] [µM]
Cc1ccc2nc(-c3ccc4nc(-c5ccc(NC(=O)c6cccc(Cl)c6)cc5)sc4c3)sc2c1S(=O)(=O)O [Compound 17, 2′-(4-(3-chlorobenzamido)phenyl)-6-methyl-[2,6′-bibenzo[d]thiazole]-7-sulfonic acid] | 41 ± 11 | 41 ± 11 | > 100 | 54 ± 10 | 54 ± 10 | 112 ± 4% | 112 ± 4 | 201 ± 119 | 47 | > 100 | – | – | – | – | –
Cc1ccc2nc(-c3ccc4nc(-c5ccc(NC(=O)Nc6ccccc6)cc5)sc4c3)sc2c1S(=O)(=O)O.N [Compound 52] | – | 46 ± 2 | > 100 | – | -18 ± 56 | 108 ± 4% | – | 6 ± 1 | 95 | 6 | – | – | – | – | –
Cc1ccc2nc(-c3ccc4nc(-c5ccc(NC(=O)c6cccnc6)cc5)sc4c3)sc2c1S(=O)(=O)O [Compound 31, 6-methyl-2′-(4-(nicotinamido)phenyl)-[2,6′-bibenzo[d]thiazole]-7-sulfonic acid] | 15 ± 10 | 15 ± 10 | > 100 | 51 ± 22 | 51 ± 22 | 113 ± 6% | 113 ± 6 | 173 ± 354 | 48 | > 100 | – | – | – | – | –
Cc1ccc2nc(-c3ccc4nc(-c5ccc(NC(=O)c6ccncc6)cc5)sc4c3)sc2c1S(=O)(=O)O [Compound 32, 2′-(4-(isonicotinamido)phenyl)-6-methyl-[2,6′-bibenzo[d]thiazole]-7-sulfonic acid] | 19 ± 7 | 19 ± 7 | > 100 | 59 ± 13 | 59 ± 13 | 117 ± 5% | 117 ± 5 | 55 ± 20 | 63 | 55 | – | – | – | – | –
Cc1ccc2nc(-c3ccc4nc(-c5ccc(NC(=O)c6cccc7ccccc67)cc5)sc4c3)sc2c1S(=O)(=O)O.N [Compound 49] | – | 80 ± 3 | 30 | – | -9 ± 8 | 103 ± 5% | – | 9 ± 2 | 94 | 9 | – | – | – | – | –
Cc1ccc2nc(-c3ccc4nc(-c5ccc(NC(=O)c6cc(C(F)(F)F)ccc6F)cc5)sc4c3)sc2c1S(=O)(=O)O [Compound 25, 2′-(4-(2-fluoro-5-(trifluoromethyl)benzamido)phenyl)-6-methyl-[2,6′-bibenzo[d]thiazole]-7-sulfonic acid] | 35 ± 26 | 35 ± 26 | > 100 | 39 ± 4 | 39 ± 4 | 132 ± 14% | 132 ± 14 | 12 ± 8 | 69 | 12 ± 8 | – | – | – | – | –
Cc1ccc(C(=O)Nc2ccc(-c3nc4ccc(-c5nc6ccc(C)c(S(=O)(=O)O)c6s5)cc4s3)cc2)cc1 [Compound 11, 6-methyl-2′-(4-(4-methylbenzamido)phenyl)-[2,6′-bibenzo[d]thiazole]-7-sulfonic acid] | 50 ± 15 | 50 ± 15 | > 100 | 52 ± 12 | 52 ± 12 | 87 ± 4% | 87 ± 4 | 5 ± 2 | 96 | 5 ± 2 | > 100 | – | – | – | –
Cc1ccc2nc(-c3ccc4nc(-c5ccc(NC(=O)c6ccc7nc(-c8ccc(NC(=O)OCC9c%10ccccc%10-c%10ccccc%109)cc8)sc7c6)cc5)sc4c3)sc2c1S(=O)(=O)O.N [Compound 36] | 67 ± 5 | 67 ± 5 | 22 | 42 ± 5 | 44 ± 9 | 95 ± 3% and 90 ± 4% | 90 ± 4 | 5 ± 1 | 95 | 5 | – | – | – | – | –
Cc1ccc2nc(-c3ccc4nc(-c5ccc(NC(=S)Nc6ccccc6)cc5)sc4c3)sc2c1S(=O)(=O)O.N [Compound 50] | – | 76 ± 9 | 30 | – | 9 ± 9 | 98 ± 10% | – | 7 ± 1 | 98 | 7 | – | – | – | – | –
Cc1ccc2nc(-c3ccc4nc(-c5ccc(NC(=O)c6cc(F)ccc6C(F)(F)F)cc5)sc4c3)sc2c1S(=O)(=O)O [Compound 26, 2′-(4-(5-fluoro-2-(trifluoromethyl)benzamido)phenyl)-6-methyl-[2,6′-bibenzo[d]thiazole]-7-sulfonic acid] | 35 ± 21 | 35 ± 21 | > 100 | 61 ± 14 | 61 ± 14 | 118 ± 4% | 118 ± 4 | 14 ± 2 | 95 | 14 ± 2 | – | – | – | – | –
Cc1ccc2nc(-c3ccc4nc(-c5ccc(NC(=O)c6ccc(Cl)cc6)cc5)sc4c3)sc2c1S(=O)(=O)O [Compound 10, 2′-(4-(4-chlorobenzamido)phenyl)-6-methyl-[2,6′-bibenzo[d]thiazole]-7-sulfonic acid] | 67 ± 17 | 67 ± 17 | 31 ± 15 | – | – | 84 ± 6% | 84 ± 6 | – | 80 | – | – | 42 ± 9 | 42 ± 9 | 46 ± 52 | 46 ± 52
Cc1ccc2nc(-c3ccc4nc(-c5ccc(NC(=O)Nc6ccc(C(F)(F)F)cc6)cc5)sc4c3)sc2c1S(=O)(=O)O.N [Compound 47] | – | 84 ± 22 | 18 | – | 7 ± 39 | 99 ± 7% | – | 15 ± 3 | 91 | 15 | – | – | – | – | –
Cc1ccc(NC(=O)Nc2ccc(-c3nc4ccc(-c5nc6ccc(C)c(S(=O)(=O)O)c6s5)cc4s3)cc2)cc1 [Compound 28, 6-methyl-2′-(4-(3-(p-tolyl)ureido)phenyl)-[2,6′-bibenzo[d]thiazole]-7-sulfonic acid] | 90 ± 9 | 90 ± 9 | 18 | 43 ± 9 | 43 ± 9 | 93 ± 1% | 93 ± 1 | 10 ± 3 | 96 | 10 | 13 | – | – | – | –
Cc1ccc2nc(-c3ccc4nc(-c5ccc(NCc6ccccc6)cc5)sc4c3)sc2c1S(=O)(=O)O [Compound 53] | – | 92 ± 4 | 27 | – | -64 ± 25 | 109 ± 8% | – | 5 ± 1 | 102 | 5 | – | – | – | – | –
Cc1ccc2nc(-c3ccc4nc(-c5ccc(NC(=O)c6ccc7nc(-c8ccc(N)cc8)sc7c6)cc5)sc4c3)sc2c1S(=O)(=O)O [Compound 35, 2′-(4-(2-(4-aminophenyl)benzo[d]thiazole-6-carboxamido)phenyl)-6-methyl-[2,6′-bibenzo[d]thiazole]-7-sulfonic acid] | 59 ± 4 | 59 ± 4 | 68 | 37 ± 4 | 37 ± 4 | 85 ± 2% | 85 ± 2 | 3 ± 1 | 95 | – | – | – | – | – | –
Cc1ccc2nc(-c3ccc4nc(-c5ccc(NC(=O)c6ccc(Br)cc6)cc5)sc4c3)sc2c1S(=O)(=O)O [Compound 15, 2′-(4-(4-bromobenzamido)phenyl)-6-methyl-[2,6′-bibenzo[d]thiazole]-7-sulfonic acid] | 70 ± 9 | 70 ± 9 | 30 ± 13 | 7 ± 18 | 7 ± 18 | 113 ± 5% | 113 ± 5 | 27 ± 6 | 91 | 27 ± 6 | – | – | – | – | –
